Patent publication US20200223826A1, “Glucose-6-Phosphate Dehydrogenase (G6PD)-Modulating Agents And Methods Of Treating G6PD Deficiency” (The Board of Trustees of the Leland Stanford Junior …, priority 2017, published 2020)

How the values were obtained:
zebrafish embryos = test: Zebrafish embryo development; format: in vivo; conditions: treated at 24 hpf, scored at 32 or 48 hpf
Experimental: Adult zebrafish (AB strain; 3-18 months old) were raised and embryos were obtained through natural mating and staged according to standard protocols. Adult tbx16b104/+ were obtained. All animal procedures were performed according to NIH guidelines. Embryos were raised in E3 medium at 28.5° C.
Embryos were dechorinated with pronase at 24 hours post fertilization (hpf) and treated with 50 μg/ml of chloroquine and/or AG1 by directly adding the compounds to the well. For ROS measurements, embryos were incubated with compounds for 2 hours, and then the ROS detecting reagent (CM-H2DCFDA) was added at a final concentration of 500 ng/ml to the well for a total treatment time of 5 hours. One embryo was placed to each well of a black, opaque 96-well plate. The florescence was analyzed with excitation/emission at 485/525 nm. After ROS assays, embryos at about 32 hpf were pooled and lysed in buffer containing 50 mM Tris (pH 7.4), 150 mM NaCl, 1 mM EDTA, 0.1% NP-40, and protease inhibitor cocktail, which was followed by three cycles of freeze and thawing in liquid nitrogen. The lysate was centrifuged at 14,000 rpm at 4° C. for 15 minutes. Total protein concentration in the supernatants (total lysate) was determined by Bradford method. […] 50 μg of the lysate was used to measure NADPH levels using a NADPH quantification kit (Biovision), according to the manufacturer's instructions. […]

human erythrocytes [1] = test: GSH levels in erythrocytes under oxidative stressors; format: cell-based; conditions: drug-induced oxidative stress
Experimental: (§1) De-identified blood samples were obtained from the Stanford Blood Center. Erythrocytes were collected by filtering the samples through a cellulose slurry to remove platelets and leukocytes and then washed with saline. G6PD activity was measured (Beutler E. Red cell metabolism: A manual of biochemical methods (3rd edition). Grune & Stratton (1984)). […] A 5% erythrocyte suspension was pre-incubated with 1-5 μM AG1 at 4° C. overnight, which was followed by treatment with (or without) either 1 mM chloroquine (CQ) or 1 mM diamide for 3-4 hours at 37° C. (for hemolysis assay with chloroquine, the mixture was incubated under light). Then centrifugation at 1,000 rpm for 5 minutes was followed. Hemoglobin release in the supernatant was monitored by measuring absorbance at 540 nm. […] After wash, the samples were lysed with 0.1% Triton X-100 (final concentration), and the florescence was analyzed with excitation/emission at 485/525 nm. GSH measurement was determined using a Cayman glutathione assay kit (Cayman Chemicals, 703002). […] The absorbance was read at 412 nm. For storage assay, a 5% erythrocyte suspension was stored at 4° C. with and without 1 μM AG1, and hemolysis and G6PD activity were monitored every week for 28 days to examine whether AG1 improves preservation of erythrocytes over time. Protein leakage was also examined by measuring the absorbance of the supernatant of samples at 280 nm. […]

[2] = target: T1, G6PD in lysate of human fibroblasts with the Mediterranean variant (Homo sapiens, UniProt P11413, S188F); test: G6PD activity in fibroblast lysate; format: cell-based
T1 construct: host or cells: subject-derived fibroblast cell line
Experimental: Lymphocytes derived from a normal subject (HG 00866) and a G6PD-deficient subject carrying Canton variant in G6PD (HG 02367) were purchased from Coriell Institute and cultured in RPMI 1640 supplemented with 15% fetal bovine serum (FBS), 100 U/ml penicillin, and 100 μg/ml streptomycin. An SH-SY5Y neuroblastoma cell line was cultured in Dulbecco's Modification of Eagle's Medium/Ham's F-12 50/50 Mix supplemented with 10% FBS, 100 U/ml penicillin, and 100 μg/ml streptomycin. A G6PD-deficient subject-derived fibroblast cell line carrying Mediterranean variant and normal fibroblast cell line as control were purchased from Coriell Institute (GM 01152) and ThermoFisher Scientific (C0135C), respectively, and cultured in minimum essential medium supplemented with 15% FBS, 100 U/ml penicillin, and 100 μg/ml streptomycin. All the cell lines were maintained at 37° C. in a humidified incubator with an atmosphere of 5% of CO2 and 95% air.
Enzyme activity was measured by monitoring NADPH production, which was coupled with diaphorase converting resazurin to fluorescent resorufin (excitation at 565 nm and emission at 590 nm); fluorescent signal was thus proportional to G6PD activity. Assays were performed at 25° C. and run for 5 minutes in buffer containing 50 mM Tris (pH 7.4), 0.5 mM EDTA, 3.3 mM MgCl2, 1 U/ml diaphorase, 0.1 mM resazurin. […]

human erythrocytes [3] = test: Hemolysis of human erythrocytes under oxidative stressors; format: cell-based
Experimental: as §1

T1 sequence (P11413 2-515 S188F limits assumed): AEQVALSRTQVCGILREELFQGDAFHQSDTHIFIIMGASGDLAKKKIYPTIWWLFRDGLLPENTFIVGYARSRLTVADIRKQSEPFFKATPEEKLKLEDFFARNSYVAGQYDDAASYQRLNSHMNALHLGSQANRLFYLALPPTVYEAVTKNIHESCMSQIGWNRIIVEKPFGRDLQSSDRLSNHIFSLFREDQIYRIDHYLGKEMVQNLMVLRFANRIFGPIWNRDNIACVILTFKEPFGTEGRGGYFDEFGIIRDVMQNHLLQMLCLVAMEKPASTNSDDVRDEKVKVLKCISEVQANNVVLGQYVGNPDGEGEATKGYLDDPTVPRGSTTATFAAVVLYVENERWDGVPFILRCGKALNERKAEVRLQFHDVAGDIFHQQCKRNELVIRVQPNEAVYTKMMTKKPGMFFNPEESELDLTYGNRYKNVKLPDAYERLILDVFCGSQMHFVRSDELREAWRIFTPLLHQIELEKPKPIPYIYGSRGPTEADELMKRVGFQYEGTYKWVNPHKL

SCCNCCc1c[nH]c2ccccc12 [AG1, 2-[2-(1H-indol-3-yl)ethylamino]ethanethiol]
concentrations at which embryos developed normally (zebrafish embryos): < 10 µM
GSH levels (human erythrocytes [1]): increased
increase of G6PD activity in lysate [2]: 50%
chloroquine-induced hemolysis (human erythrocytes [3]; AG1 1 μM): rescued
extent of hemolysis (human erythrocytes [3]; AG1 5 μM, 5% erythrocyte suspension, 1 mM chloroquine or diamide): reduces the extent of hemolysis
